Measured values published in US8716285B2, “N-hydroxy-benzamids for the treatment of cancer” (Hoffmann-La Roche Inc., priority 2010, dated 2014).
pEC50, pIC50: −log10 of the molar value.

How the values were obtained:
RPMI-8226 cells = assay: Growth inhibitory synergy with Velcade, WST/CCK-8 assay; format: cell-based; conditions: 72 h
Experimental: Cells were seeded in 96-well culture plates (200 μl/well at different seeding concentrations depending on cell type) and incubated overnight at 37° C. in 5% CO2. After adding compound dilutions to the cells (DMSO concentration kept below 0.5%), the cells were incubated at 37° C. in 5% CO2 for 72 hours. The effects on proliferation were determined by addition of CCK-8 reagent (Dojindo) according to the manufacturer's instruction, followed by incubation for 2 hours at 37° C. in 5% CO2, and finally recording the absorbance at 450 nm using an ELISA plate reader.
Novel compounds were tested for their synergistic effect with Velcade in multiple myeloma cells in vitro. Briefly, the multiple myeloma cells (RPMI-8226, OPM-2, or NCI-H929) were seeded into 96 well plate at 18000-20000 cells per well. The GI50s of these compounds against myeloma cells were measured by WST assay. […] The tested compound and Velcade used the same dilution factor in the combination treatment. […] After 72 h treatment, cell viability was measured at 450 nm by SpectraMAX190 after 2 h incubation with CCK8 reagent at 37° C. Synergy between the tested compounds and velcade was analyzed by software Calcusyn. […]
Notes: Chou and Talalay in 1983 proposed the designation of CI (combination index)=1 as the additive effect. […] It can be calculated by the equation above. […]

[1] = test system: p21 promoter-luciferase construct; assay: p21 reporter gene induction in HeLa cells transfected with p21 promoter-luciferase construct; format: cell-based; conditions: for p21 RP3: relative gene level of p21 induced compared to MS275 at 3 μM; for p21 RP10: relative level of p21 induced compared to MS275 at 10 μM; for p21 RP30: relative level of p21 induced compared to MS275 at 30 μM
recombinant human HDAC8 = recombinant human HDAC8 (Homo sapiens (Human), UniProt Q9BY41); assay: HDAC8 inhibition: recombinant HDAC8 fluorometric assay; format: biochemical; conditions: recombinant human HDAC8, substrate Ac-Arg-His-Lys-Lys(ε-acetyl)-AMC
recombinant human HDAC8, sequence (Q9BY41 whole entry): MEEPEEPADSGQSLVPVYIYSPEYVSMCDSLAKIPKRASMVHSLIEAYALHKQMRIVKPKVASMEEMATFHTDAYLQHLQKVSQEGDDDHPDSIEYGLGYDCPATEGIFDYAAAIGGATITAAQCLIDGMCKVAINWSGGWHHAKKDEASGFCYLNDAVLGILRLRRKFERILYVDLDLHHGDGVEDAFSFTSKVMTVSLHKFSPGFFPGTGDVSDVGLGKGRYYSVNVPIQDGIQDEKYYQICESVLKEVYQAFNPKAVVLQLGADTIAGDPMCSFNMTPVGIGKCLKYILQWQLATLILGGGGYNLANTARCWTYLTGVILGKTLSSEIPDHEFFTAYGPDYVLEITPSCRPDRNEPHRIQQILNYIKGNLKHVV

HDAC6 = HDAC6 (Homo sapiens (Human), UniProt Q9UBN7); assay: Tubulin acetylation cytoblot assay (A549 cells); format: cell-based; conditions: 17-18 h, concentration for 50% induction of acetylated tubulin, read-out: Tub-ac EC50
HDAC6, sequence (Q9UBN7 whole entry): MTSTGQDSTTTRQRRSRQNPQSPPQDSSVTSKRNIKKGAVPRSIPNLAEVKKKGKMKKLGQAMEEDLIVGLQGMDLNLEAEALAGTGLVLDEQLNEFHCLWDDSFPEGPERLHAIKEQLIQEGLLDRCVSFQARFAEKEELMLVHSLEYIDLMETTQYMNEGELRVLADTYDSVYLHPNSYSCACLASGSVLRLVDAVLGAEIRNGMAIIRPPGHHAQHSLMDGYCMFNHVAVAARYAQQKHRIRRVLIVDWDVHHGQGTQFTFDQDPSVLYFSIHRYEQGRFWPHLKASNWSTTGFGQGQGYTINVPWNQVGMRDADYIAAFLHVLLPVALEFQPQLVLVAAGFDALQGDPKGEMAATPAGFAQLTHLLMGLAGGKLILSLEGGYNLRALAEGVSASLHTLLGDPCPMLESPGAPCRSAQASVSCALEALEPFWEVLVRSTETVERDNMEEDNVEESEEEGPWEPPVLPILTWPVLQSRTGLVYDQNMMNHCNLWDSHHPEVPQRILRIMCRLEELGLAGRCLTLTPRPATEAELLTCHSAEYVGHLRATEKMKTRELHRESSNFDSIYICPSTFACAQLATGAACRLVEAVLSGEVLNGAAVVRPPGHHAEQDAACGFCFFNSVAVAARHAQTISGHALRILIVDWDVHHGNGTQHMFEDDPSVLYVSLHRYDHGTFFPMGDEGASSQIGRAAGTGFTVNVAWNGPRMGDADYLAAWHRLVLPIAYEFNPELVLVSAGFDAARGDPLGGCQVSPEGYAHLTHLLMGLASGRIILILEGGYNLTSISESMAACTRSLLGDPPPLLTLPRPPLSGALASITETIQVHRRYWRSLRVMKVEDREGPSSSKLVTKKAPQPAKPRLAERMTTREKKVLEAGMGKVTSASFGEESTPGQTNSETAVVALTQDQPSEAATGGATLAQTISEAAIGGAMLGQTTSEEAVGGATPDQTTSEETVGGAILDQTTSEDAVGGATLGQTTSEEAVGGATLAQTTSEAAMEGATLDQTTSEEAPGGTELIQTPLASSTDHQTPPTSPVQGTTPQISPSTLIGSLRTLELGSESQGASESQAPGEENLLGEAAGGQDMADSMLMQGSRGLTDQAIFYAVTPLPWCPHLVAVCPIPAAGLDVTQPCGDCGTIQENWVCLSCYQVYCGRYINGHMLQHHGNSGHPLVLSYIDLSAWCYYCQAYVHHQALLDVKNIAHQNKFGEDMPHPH

pIC50 (recombinant human HDAC8)	pEC50 (HDAC6)	SMILES	synergy with Velcade in cell growth inhibition (RPMI-8226 cells)	p21 RP3 [1]	p21 RP10 [1]	p21 RP30 [1]
5.55	5.47	COc1cccc(C(=O)NC2CNc3ccc(C(=O)NO)cc3C2)c1 (stereo not drawn) [Example 54, 3-(3-Methoxy-benzoylamino)-1,2,3,4-tetrahydro-quinoline-6-carboxylic acid hydroxyamide]	–	0.03	0.03	0.07
5.47	5.46	O=C(NO)c1ccc2c(c1)CC(NC(=O)c1cccc(Cl)c1)CN2 (stereo not drawn) [Example 56, 3-(3-Chloro-benzoylamino)-1,2,3,4-tetrahydro-quinoline-6-carboxylic acid hydroxyamide]	–	0.04	0.05	0.12
5.57	5.15	O=C(NO)c1ccc2c(c1)CC(NC(=O)c1cccc(C(F)(F)F)c1)CN2 (stereo not drawn) [Example 57, 3-(3-Trifluoromethyl-benzoylamino)-1,2,3,4-tetrahydro-quinoline-6-carboxylic acid hydroxyamide]	–	0.07	0.01	0.04
5.58	5.27	O=C(NO)c1ccc2c(c1)CC(NC(=O)c1ccc(Cl)c(Cl)c1)CN2 (stereo not drawn) [Example 58, 3-(3,4-Dichloro-benzoylamino)-1,2,3,4-tetrahydro-quinoline-6-carboxylic acid hydroxyamide]	–	0.03	−0.03	0.01

Continued, compound first:

SMILES	pIC50 (recombinant human HDAC8)	pEC50 (HDAC6)	synergy with Velcade in cell growth inhibition (RPMI-8226 cells)	p21 RP3 [1]	p21 RP10 [1]	p21 RP30 [1]
O=C(NO)c1ccc2c(c1)CC(Nc1nccc(-c3cccnc3)n1)CC2 (stereo not drawn) [Example 24, 7-(4-Pyridin-3-yl-pyrimidin-2-ylamino)-5,6,7,8-tetrahydro-naphthalene-2-carboxylic acid hydroxyamide]	–	–	synergized with Velcade	–	–	–
O=C(NO)c1ccc2c(c1)CC(NC(=O)c1ccc(Cl)cc1)CN2 (stereo not drawn) [Example 55, 3-(4-Chloro-benzoylamino)-1,2,3,4-tetrahydro-quinoline-6-carboxylic acid hydroxyamide]	5.62	5.57	–	0.50	0.13	0.06
O=C(NO)c1ccc2c(c1)CC(NC(=O)c1ccc(-c3ccccc3)cc1)CN2 (stereo not drawn) [Example 59, 3-[(Biphenyl-4-carbonyl)-amino]-1,2,3,4-tetrahydro-quinoline-6-carboxylic acid hydroxyamide]	5.55	5.10	–	0.20	0.08	0.15
CN1CC(NS(=O)(=O)c2ccc(Cl)cc2)Cc2cc(C(=O)NO)ccc21 (stereo not drawn) [Example 65, 3-(4-Chloro-benzenesulfonylamino)-1-methyl-1,2,3,4-tetrahydro-quinoline-6-carboxylic acid hydroxyamide]	6.12	4.98	–	0.41	0.26	0.46
